Reference: PubChem BioAssay (NCI)
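GI50 = concentration required for 50% inhibition of growth. TGI: total growth inhibition.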

Experiments:
Experiment in all cases: NCI-60 cell line screen, 384-well format
786-0 renal = test system: 786-0 renal
A498 renal = test system: A498 renal
A549 NSCLC = test system: A549 NSCLC
ACHN renal = test system: ACHN renal
BT-549 breast = test system: BT-549 breast
CAKI-1 renal = test system: CAKI-1 renal
CCRF-CEM leukemia = test system: CCRF-CEM leukemia
COLO 205 colon = test system: COLO 205 colon
DU-145 prostate = test system: DU-145 prostate
EKVX NSCLC = test system: EKVX NSCLC
HCC-2998 colon = test system: HCC-2998 colon
HCT-116 colon = test system: HCT-116 colon
HCT-15 colon = test system: HCT-15 colon
HL-60(TB) leukemia = test system: HL-60(TB) leukemia
HOP-62 NSCLC = test system: HOP-62 NSCLC
HOP-92 NSCLC = test system: HOP-92 NSCLC
HS 578T breast = test system: HS 578T breast
HT29 colon = test system: HT29 colon
IGROV1 ovarian = test system: IGROV1 ovarian
K-562 leukemia = test system: K-562 leukemia
KM12 colon = test system: KM12 colon
LOX IMVI melanoma = test system: LOX IMVI melanoma
M14 melanoma = test system: M14 melanoma
MALME-3M melanoma = test system: MALME-3M melanoma
MCF7 breast = test system: MCF7 breast
MDA-MB-231 breast = test system: MDA-MB-231 breast
MDA-MB-435 melanoma = test system: MDA-MB-435 melanoma
MDA-MB-468 breast = test system: MDA-MB-468 breast
MOLT-4 leukemia = test system: MOLT-4 leukemia
NCI-H226 lung = test system: NCI-H226 lung
NCI-H23 lung = test system: NCI-H23 lung
NCI-H322M lung = test system: NCI-H322M lung
NCI-H460 NSCLC = test system: NCI-H460 NSCLC
NCI-H522 lung = test system: NCI-H522 lung
NCI/ADR-RES ovarian = test system: NCI/ADR-RES ovarian
OVCAR-3 ovarian = test system: OVCAR-3 ovarian
OVCAR-4 ovarian = test system: OVCAR-4 ovarian
OVCAR-8 ovarian = test system: OVCAR-8 ovarian
PC-3 prostate = test system: PC-3 prostate
RPMI-8226 leukemia = test system: RPMI-8226 leukemia
RXF 393 renal = test system: RXF 393 renal
SF-268 CNS = test system: SF-268 CNS
SF-295 CNS = test system: SF-295 CNS
SF-539 CNS = test system: SF-539 CNS
SK-MEL-28 melanoma = test system: SK-MEL-28 melanoma
SK-MEL-5 melanoma = test system: SK-MEL-5 melanoma
SK-OV-3 ovarian = test system: SK-OV-3 ovarian
SN12C renal = test system: SN12C renal
SNB-19 CNS = test system: SNB-19 CNS
SNB-75 CNS = test system: SNB-75 CNS
SR leukemia = test system: SR leukemia
SW-620 colon = test system: SW-620 colon
T-47D breast = test system: T-47D breast
TK-10 renal = test system: TK-10 renal
U251 glioblastoma = test system: U251 glioblastoma
UACC-257 melanoma = test system: UACC-257 melanoma
UACC-62 melanoma = test system: UACC-62 melanoma
UO-31 renal = test system: UO-31 renal

## Cn1ncc(NC(=O)c2nc(-c3c(F)cccc3F)sc2N)c1N1CC[C@@H](N)[C@H](F)CC1
786-0 renal
  GI50: 4.22 µM
  TGI: 14.8 µM
A498 renal
  GI50: 3.02 µM
  TGI: 13.7 µM
A549 NSCLC
  GI50: 4.22 µM
  TGI: 15.7 µM
ACHN renal
  GI50: 3.25 µM
  TGI: 15.6 µM
BT-549 breast
  GI50: 1.72 µM
  TGI: 5.44 µM
CAKI-1 renal
  GI50: 1.16 µM
  TGI: 4.92 µM
CCRF-CEM leukemia
  GI50: 1.48 µM
  TGI: 3.11 µM
COLO 205 colon
  GI50: 5.42 µM
  TGI: 19 µM
DU-145 prostate
  GI50: 4.19 µM
  TGI: 15.7 µM
EKVX NSCLC
  GI50: 3.8 µM
  TGI: 17.5 µM
HCC-2998 colon
  GI50: 8.83 µM
  TGI: 21.2 µM
HCT-116 colon
  GI50: 4.01 µM
  TGI: 15.6 µM
HCT-15 colon
  GI50: 5.03 µM
  TGI: 17.5 µM
HL-60(TB) leukemia
  GI50: 1.51 µM
  TGI: 2.91 µM
HOP-62 NSCLC
  GI50: 5.55 µM
  TGI: 18.3 µM
HOP-92 NSCLC
  GI50: 3.18 µM
  TGI: 13 µM
HS 578T breast
  GI50: 2.83 µM
  TGI: 5.52 µM
HT29 colon
  GI50: 7.09 µM
  TGI: 19.9 µM
IGROV1 ovarian
  GI50: 3.69 µM
  TGI: 13.7 µM
K-562 leukemia
  GI50: 2.19 µM
  TGI: 10.6 µM
KM12 colon
  GI50: 6.59 µM
  TGI: 19.3 µM
LOX IMVI melanoma
  GI50: 4.33 µM
  TGI: 14.5 µM
M14 melanoma
  GI50: 2.44 µM
  TGI: 14.3 µM
MALME-3M melanoma
  GI50: 2.58 µM
  TGI: 12.7 µM
MCF7 breast
  GI50: 2.82 µM
  TGI: 10.9 µM
MDA-MB-231 breast
  GI50: 4.31 µM
  TGI: 16 µM
MDA-MB-435 melanoma
  GI50: 3.2 µM
  TGI: 15.4 µM
MDA-MB-468 breast
  GI50: 2.8 µM
  TGI: 11.6 µM
MOLT-4 leukemia
  GI50: 1.61 µM
  TGI: 2.98 µM
NCI-H226 lung
  GI50: 2.22 µM
  TGI: 9.62 µM
NCI-H23 lung
  GI50: 10.9 µM
  TGI: 23 µM
NCI-H322M lung
  GI50: 6.85 µM
  TGI: 21.3 µM
NCI-H460 NSCLC
  GI50: 3.49 µM
  TGI: 12.6 µM
NCI-H522 lung
  GI50: 2.49 µM
  TGI: 9.18 µM
NCI/ADR-RES ovarian
  GI50: 16.5 µM
  TGI: 33.2 µM
OVCAR-3 ovarian
  GI50: 3.89 µM
  TGI: 14.9 µM
OVCAR-4 ovarian
  GI50: 18.9 µM
  TGI: 34.2 µM
OVCAR-8 ovarian
  GI50: 7.11 µM
  TGI: 19.7 µM
PC-3 prostate
  GI50: 3.23 µM
  TGI: 12.9 µM
RPMI-8226 leukemia
  GI50: 0.0454 µM
  TGI: 4.12 µM
RXF 393 renal
  GI50: 3.15 µM
  TGI: 13.1 µM
SF-268 CNS
  GI50: 3.47 µM
  TGI: 14.2 µM
SF-295 CNS
  GI50: 5.52 µM
  TGI: 17.8 µM
SF-539 CNS
  GI50: 3.21 µM
  TGI: 13.3 µM
SK-MEL-28 melanoma
  GI50: 10.4 µM
  TGI: 22.2 µM
SK-MEL-5 melanoma
  GI50: 1.35 µM
  TGI: 12.2 µM
SK-OV-3 ovarian
  GI50: 1.83 µM
  TGI: 9.95 µM
SN12C renal
  GI50: 2.55 µM
  TGI: 11.1 µM
SNB-19 CNS
  GI50: 12.1 µM
  TGI: 26.1 µM
SNB-75 CNS
  GI50: 2.93 µM
  TGI: 10.8 µM
SR leukemia
  GI50: 0.0471 µM
  TGI: 0.602 µM
SW-620 colon
  GI50: 3.29 µM
  TGI: 12.2 µM
T-47D breast
  GI50: 15.3 µM
  TGI: 30 µM
TK-10 renal
  GI50: 2.88 µM
  TGI: 15.4 µM
U251 glioblastoma
  GI50: 6.23 µM
  TGI: 18.7 µM
UACC-257 melanoma
  GI50: 7.52 µM
  TGI: 20 µM
UACC-62 melanoma
  GI50: 3.34 µM
  TGI: 11.7 µM
UO-31 renal
  GI50: 1.96 µM
  TGI: 5.94 µM
